Patent publication EP0045334A1, “Propranolol antigen conjugates and antibodies and method of using them” (SYVA COMPANY, priority 1980, dated 1982)

Key:
[1] = system: Antibodies prepared from BgG conjugate according to Example 4; test: Cross-reactivity in homogeneous enzyme immunoassay for propranolol (G6PDH conjugate, change in OD at 340nm); type: binding; settings: Lot 2153; 100ng/ml propranolol standard
Procedure: (§1) Antibodies were prepared employing the conjugates of Examples 4 and 6 in accordance with known procedures. The bleeds were harvested and the antibodies isolated according to known techniques.
(§2) The following is the assay procedure employed for the determination of the presence of propranolol.
(§3) In carrying out the propranolol assay, a number of reagent solutions are prepared:
(§4) • 0.055M Tris-HCl • 0.05% Sodium Azide • 0.005% Thimerosal • pH8.1 at room temperature • Assay Buffer • Basic Buffer • 0.5% NaCl • 0.01% Triton X-100 • pH8.1 at room temperature • Substrate/Antibody Diluent • Basic Buffer • 1.0% RSA (Rabbit Serum Albumin) • 0.04M NAD • 0.066M glucose-6-phosphate • pH5.0 at room temperature • Enzyme Diluent • Basic Buffer • 1.0% RSA • 0.9% NaCl • pH 8.1 at room temperature • Antibody-Substrate Reagent A
(§5) Antibody Substrate is used to dilute gamma globulin isolated as above so that ca 70% of the G6PDH conjugate activity is inhibited in the assay solution.
(§6) The enzyme conjugate (e.g., Example 7) is diluted with enzyme diluent to attain the desired maximum rate. This is measured by aspirating into a spectrometer and taking the change in readings at 340nm over a 30 second period after a 15 second delay.
(§7) In carrying out the assay, the assay solution is prepared by combining the following: 50µl of the sample to be assayed, 50 µl of Reagent A, and 50 µl of Reagent B with 750 µl of assay buffer. The mixture is aspirated into a spectrometer and the A OD read at 340nm. The.concentration of propranolol in the sample is read from a standard curve prepared by using standardized solutions and taking readings.
(§8) The drugs listed below were used in preliminary testing for cross-reactivity with propranolol using the assay procedure described above: 4-hydroxypropranolol (4POH), N-desisopropyl-propranolol (DIPP), propranolol glycol (PG), naphthoxylactic acid (NLA), and naphthoxyacetic acid (NAA). All are metabolites of propranolol itself. […] The remainder show cross reactivity as below.

[2] = system: Antibodies prepared from BSA conjugate according to Example 6; test: as above; type: binding; settings: 100ng/ml propranolol standard
Procedure: as §1, §2, §3, §4, §5, §6, §7, §8

CROSS-REACTIVITY, expressed as the concentration necessary to elevate the signal of a 100ng/ml standard solution by 30% [1] [ng/mL]	CROSS-REACTIVITY, expressed as the concentration necessary to elevate the signal of a 100ng/ml standard solution by 30% ([2]; Lot 2215) [ng/mL]	CROSS-REACTIVITY, expressed as the concentration necessary to elevate the signal of a 100ng/ml standard solution by 30% ([2]; Lot 2216) [ng/mL]	SMILES
8	22	200	NCC(O)COc1cccc2ccccc12 (stereo not drawn) [DIPP, N-desisopropyl-propranolol]
84	230	400	OCC(O)COc1cccc2ccccc12 (stereo not drawn) [PG, propranolol glycol]
190	>1000	>1000	CC(C)NCC(O)COc1ccc(O)c2ccccc12 (stereo not drawn) [Example 4POH, 4-hydroxypropranolol]
